Assay results from patent US10961200B2, “Small molecule inhibitors of lactate dehydrogenase and methods of use thereof” (THE UNITED STATES OF AMERICA, AS REPRESENTED BY THE …, priority 2014, dated 2021).

molecular target: Human LDHA (Homo sapiens (Human), UniProt P00338); experiment: human LDHA primary biochemical assay (resazurin/diaphorase coupled, fluorescence); conditions: LDHA inhibitory activity, assay of Example 1; activity level classes
Text: Test compounds were placed in a Greiner Bio-One (Monroe, N.C.) 1536-well black solid bottom assay plate. 200 millimolar (mM) Tris HCl, pH 7.4, 100 micromolar […] EDTA and 0.01% TWEEN-20™, final concentration, was used as the assay buffer. The LDHA reagent was 2 nanomolar (nM) Human LDHA (Meridian Life Science, Inc., Memphis, Tenn.), final concentration, in assay buffer.

IC50	Structure (SMILES)
> 57 µM	O=C(O)c1csc(-n2cc(-c3ccc(F)c(F)c3)c3cccnc32)n1 [Compound 23, 2-(3-(3,4-difluorophenyl)-1H-pyrrolo[2,3-b]pyridin-1-yl)thiazole-4-carboxylic acid]
> 57 µM	O=C(O)c1csc(-n2nc(-c3ccc(F)c(F)c3)c3cccnc32)n1 [Compound 25, 2-(3-(3,4-difluorophenyl)-1H-pyrazolo[3,4-b]pyridin-1-yl)thiazole-4-carboxylic acid]
> 57 µM	CS(=O)(=O)c1ccc(Cc2cn(-c3nc(C(=O)O)cs3)nc2-c2ccccc2)cc1 [Compound 27, 2-(4-(4-(methylsulfonyl)benzyl)-3-phenyl-1H-pyrazol-1-yl)thiazole-4-carboxylic acid]
> 57 µM	O=C(O)c1csc(-n2cc(Cc3ccc(C(F)(F)F)cc3)c(-c3ccccc3)n2)n1 [Compound 28, 2-(3-phenyl-4-(4-(trifluoromethyl)benzyl)-1H-pyrazol-1-yl)thiazole-4-carboxylic acid]
> 57 µM	O=C(O)c1csc(-n2cc(-c3cccc(-c4ccccc4)c3)c3cccnc32)n1 [Compound 29, 2-(3-([1,1′-biphenyl]-3-yl)-1H-pyrrolo[2,3-b]pyridin-1-yl)thiazole-4-carboxylic acid]
< 0.1 µM	Nc1c(Cc2ccc(S(N)(=O)=O)cc2)c(-c2ccc(F)c(F)c2)nn1-c1nc(C(=O)O)cs1 [Compound 38, 2-(5-amino-3-(3,4-difluorophenyl)-4-(4-sulfamoylbenzyl)-1H-pyrazol-1-yl)thiazole-4-carboxylic acid]
< 0.1 µM	NS(=O)(=O)c1ccc(Cc2c(-c3ccc(F)c(F)c3)nn(-c3nc(C(=O)O)cs3)c2C(F)(F)F)cc1 [Compound 39, 2-(3-(3,4-difluorophenyl)-4-(4-sulfamoylbenzyl)-5-(trifluoromethyl)-1H-pyrazol-1-yl)thiazole-4-carboxylic acid]
< 0.1 µM	NS(=O)(=O)c1ccc(Cc2c(-c3ccccc3)nn(-c3nc(C(=O)O)cs3)c2C(F)(F)F)cc1 [Compound 44, 2-(3-phenyl-4-(4-sulfamoylbenzyl)-5-(trifluoromethyl)-1H-pyrazol-1-yl)thiazole-4-carboxylic acid]
< 0.1 µM	NS(=O)(=O)c1ccc(Cc2c(-c3ccccc3)nn(-c3nc(C(=O)O)cs3)c2I)cc1 [Compound 45, 2-(5-iodo-3-phenyl-4-(4-sulfamoylbenzyl)-1H-pyrazol-1-yl)thiazole-4-carboxylic acid]
> 57 µM	NS(=O)(=O)c1ccc(NCc2c(-c3ccccc3)n[nH]c2O)cc1 [Compound 49, 4-(((5-hydroxy-3-phenyl-1H-pyrazol-4-yl)methyl)amino)benzenesulfonamide]
0.1 to 1 µM	COc1c(Cc2ccc(S(N)(=O)=O)cc2)c(-c2ccc(F)c(F)c2)nn1-c1nc(C(=O)O)cs1 [Compound 60, 2-(3-(3,4-difluorophenyl)-5-methoxy-4-(4-sulfamoylbenzyl)-1H-pyrazol-1-yl)thiazole-4-carboxylic acid]
> 57 µM	O=C(O)c1csc(-n2nc(-c3ccc(F)c(F)c3)cc2CO)n1 [Compound 64, 2-(3-(3,4-difluorophenyl)-5-(hydroxymethyl)-1H-pyrazol-1-yl)thiazole-4-carboxylic acid]
> 57 µM	Cc1nn(-c2nc(C(=O)O)cs2)c(O)c1Cc1ccc(S(N)(=O)=O)cc1 [Compound 66, 2-(5-hydroxy-3-methyl-4-(4-sulfamoylbenzyl)-1H-pyrazol-1-yl)thiazole-4-carboxylic acid]

Structure (SMILES)	IC50
NS(=O)(=O)c1ccc(Cc2cn(-c3nc(C(=O)O)cs3)nc2-c2ccc(F)c(F)c2)cc1 [Compound 41, 2-(3-(3,4-difluorophenyl)-4-(4-sulfamoylbenzyl)-1H-pyrazol-1-yl)thiazole-4-carboxylic acid]	< 0.1 µM
N#Cc1c(Cc2ccc(S(N)(=O)=O)cc2)c(-c2ccccc2)nn1-c1nc(C(=O)O)cs1 [Compound 50]	< 0.1 µM
NC(=O)c1ccc(Cc2c(-c3cccc(-c4ccccc4)c3)nn(-c3nc(C(=O)O)cs3)c2O)cc1 [Compound 67, 2-(3-([1,1′-biphenyl]-3-yl)-4-(4-carbamoylbenzyl)-5-hydroxy-1H-pyrazol-1-yl)thiazole-4-carboxylic acid]	> 57 µM

same assay, conditions: read-out: Inhibitory activity IC50

IC50	Structure (SMILES)
1 to 57 µM	O=C(O)c1csc(-n2cc(Br)c(-c3cccc(-c4ccccc4)c3)n2)n1 [Compound 21, 2-(3-([1,1′-biphenyl]-3-yl)-4-bromo-1H-pyrazol-1-yl)thiazole-4-carboxylic acid]
1 to 57 µM	O=C(O)c1csc(-n2ccc(-c3cccc(-c4ccccc4)c3)n2)n1 [Compound 22, 2-(3-([1,1′-biphenyl]-3-yl)-1H-pyrazol-1-yl)thiazole-4-carboxylic acid]
0.1 to 1 µM	NS(=O)(=O)c1ccc(Oc2c(-c3ccccc3)nn(-c3nc(C(=O)O)cs3)c2O)cc1 [Compound 24, 2-(5-hydroxy-3-phenyl-4-(4-sulfamoylphenoxy)-1H-pyrazol-1-yl)thiazole-4-carboxylic acid]
0.1 to 1 µM	NS(=O)(=O)c1ccc(Cc2cn(-c3nc(C(=O)O)cs3)c3ncccc23)cc1 [Compound 26, 2-(3-(4-sulfamoylbenzyl)-1H-pyrrolo[2,3-b]pyridin-1-yl)thiazole-4-carboxylic acid]
1 to 57 µM	NS(=O)(=O)c1ccc(Cc2cn(-c3nc(C(=O)O)cs3)c3ccc(C(=O)N4CCOCC4)cc23)cc1 [Compound 30, 2-(5-(morpholine-4-carbonyl)-3-(4-sulfamoylbenzyl)-1H-indol-1-yl)thiazole-4-carboxylic acid]
0.1 to 1 µM	NS(=O)(=O)c1ccc(Cc2cn(-c3nc(C(=O)O)cs3)c3ccc(F)cc23)cc1 [Compound 31, 2-(5-fluoro-3-(4-sulfamoylbenzyl)-1H-indol-1-yl)thiazole-4-carboxylic acid]
1 to 57 µM	NS(=O)(=O)c1ccc(Cc2cn(-c3nc(C(=O)O)cs3)c3ccc(CN4CCOCC4)cc23)cc1 [Compound 32, 2-(5-(morpholinomethyl)-3-(4-sulfamoylbenzyl)-1H-indol-1-yl)thiazole-4-carboxylic acid]
0.1 to 1 µM	NS(=O)(=O)c1ccc(Cc2cn(-c3nc(C(=O)O)cs3)c3ccncc23)cc1 [Compound 34, 2-(3-(4-sulfamoylbenzyl)-1H-pyrrolo[3,2-c]pyridin-1-yl)thiazole-4-carboxylic acid]
1 to 57 µM	NS(=O)(=O)c1ccc(Cc2nn(-c3nc(C(=O)O)cs3)c3ccccc23)cc1 [Compound 35, 2-(3-(4-sulfamoylbenzyl)-1H-indazol-1-yl)thiazole-4-carboxylic acid]
0.1 to 1 µM	NS(=O)(=O)c1ccc(Cc2cn(-c3nc(C(=O)O)cs3)c3ccc(OC4CCOCC4)cc23)cc1 [Compound 36, 2-(3-(4-sulfamoylbenzyl)-5-((tetrahydro-2H-pyran-4-yl)oxy)-1H-indol-1-yl)thiazole-4-carboxylic acid]
1 to 57 µM	NS(=O)(=O)c1ccc(Cc2cn(-c3nc(C(=O)O)cs3)c3cc(C(=O)N4CCOCC4)ccc23)cc1 [Compound 37, 2-(6-(morpholine-4-carbonyl)-3-(4-sulfamoylbenzyl)-1H-indol-1-yl)thiazole-4-carboxylic acid]
1 to 57 µM	CCOC(=O)c1csc(-n2nc(-c3cccc(-c4ccccc4)c3)c(Cc3ccc(S(N)(=O)=O)cc3)c2N)n1 [Compound 56, ethyl 2-(3-([1,1′-biphenyl]-3-yl)-5-amino-4-(4-sulfamoylbenzyl)-1H-pyrazol-1-yl)thiazole-4-carboxylate]
0.1 to 1 µM	Cc1sc(-n2nc(-c3ccccc3)c(Cc3ccc(S(N)(=O)=O)cc3)c2N)nc1C(=O)O [Compound 57, 2-(5-amino-3-phenyl-4-(4-sulfamoylbenzyl)-1H-pyrazol-1-yl)-5-methylthiazole-4-carboxylic acid]
1 to 57 µM	CCOC(=O)c1csc(-n2nc(-c3ccccc3)c(Cc3ccc(S(N)(=O)=O)cc3)c2N)n1 [Compound 58, ethyl 2-(5-amino-3-phenyl-4-(4-sulfamoylbenzyl)-1H-pyrazol-1-yl)thiazole-4-carboxylate]
0.1 to 1 µM	N#CCc1c(Cc2ccc(S(N)(=O)=O)cc2)c(-c2ccccc2)nn1-c1nc(C(=O)O)cs1 [Compound 59, 2-(5-(cyanomethyl)-3-phenyl-4-(4-sulfamoylbenzyl)-1H-pyrazol-1-yl)thiazole-4-carboxylic acid]
0.1 to 1 µM	CCOc1c(Cc2ccc(S(N)(=O)=O)cc2)c(-c2ccc(F)c(F)c2)nn1-c1nc(C(=O)O)cs1 [Compound 61, 2-(3-(3,4-difluorophenyl)-5-ethoxy-4-(4-sulfamoylbenzyl)-1H-pyrazol-1-yl)thiazole-4-carboxylic acid]

Structure (SMILES)	IC50
NS(=O)(=O)c1ccc(Cc2cn(-c3nc(C(=O)O)cs3)nc2-c2ccccc2)cc1 [Compound 19, 2-(3-phenyl-4-(4-sulfamoylbenzyl)-1H-pyrazol-1-yl)thiazole-4-carboxylic acid]	< 0.1 µM
NS(=O)(=O)c1ccc(Oc2cn(-c3nc(C(=O)O)cs3)nc2-c2ccccc2)cc1 [Compound 33, 2-(3-phenyl-4-(4-sulfamoylphenoxy)-1H-pyrazol-1-yl)thiazole-4-carboxylic acid]	< 0.1 µM
O=C(O)c1csc(-n2nc(-c3ccccc3)cc2C(F)(F)F)n1 [Compound 62, 2-(3-phenyl-5-(trifluoromethyl)-1H-pyrazol-1-yl)thiazole-4-carboxylic acid]	1 to 57 µM
O=C(O)c1csc(-n2nc(-c3cccc(-c4ccccc4F)c3)cc2O)n1 [Compound 63, 2-(3-(2′-fluoro-[1,1′-biphenyl]-3-yl)-5-hydroxy-1H-pyrazol-1-yl)thiazole-4-carboxylic acid]	> 57 µM
O=C(O)c1ccc(Cc2c(-c3cccc(-c4ccccc4)c3)nn(-c3nc(C(=O)O)cs3)c2O)cc1 [Compound 68, 2-(3-([1,1′-biphenyl]-3-yl)-4-(4-carboxybenzyl)-5-hydroxy-1H-pyrazol-1-yl)thiazole-4-carboxylic acid]	> 57 µM
